Assay results taken from patent publication US7098350B2, “E2,E4,Z8-undecatrienoic acid and ester and carboxamide derivatives thereof, organoleptic uses thereof and processes for preparing same” (International Flavors & Fragrances Inc., priority 2003, dated 2006).

Key:
[1] = Organoleptic and somatosensory properties (Table I); conditions: at 10 ppm
Source text: Specific members of the 2,4,8-undecatrienoic acid derivative genus of our invention have organoleptic and somatosensory properties as set forth in the following Table I: […]

[2] = Taste evaluation in kiwi-flavored 30° proof alcoholic beverage; conditions: 3 ppm compound plus 200 ppm kiwi flavor blend in 30° proof alcoholic base; control has flavor blend only
Method: (§1) The following formulation was prepared: […]
Flavored beverages were prepared using the above 30° proof alcoholic base. A kiwi flavor was applied to the beverages. This flavor consisted of cis-3 hexenol, trans-2 hexenal, ethyl butyrate, ethyl-2-methyl butyrate, isoamyl butyrate, ethyl acetate, ethyl isovalerate, and trans-2-hexenol in equal proportions. The control beverage contained 200 ppm of the above flavor blend. […] Another beverage was prepared containing 200 ppm of the same flavor and 3 ppm of N-isobutyl E2,E4,Z8-undecatrienamide prepared according to Example 1(B).

[3] = Taste evaluation in cola-flavored hard candy; conditions: 50 ppm compound in cola-flavored hard candy; control without compound
Method: as §1
The above formulation was added to a stainless steel pot. With constant mixing, the formulation temperature was raised to 295° F. The pot was then removed from the heat, and 1.0 grams of a cola flavor containing the ingredients in equal amounts: cinnamic aldehyde, ginger oil, lemon oil, lime oil and nutmeg oil was added and blended with the sucrose-corn syrup-water formulation. After the blending was complete, 1.2 grams of citric acid was added. The resulting liquid candy was then deposited into molds, and the molds containing the liquid candy were cooled to room temperature, yielding 200 grams of finished hard candy. […] A second candy sample was prepared using the above recipe modified by the addition of 50 ppm of N-isobutyl E2, E4, Z8-undecatrienamide prepared according the procedure of Example 1 (B).

CC/C=C\CC/C=C/C=C/C(=O)NCC(C)C [N-isobutyl E2,E4,Z8-undecatrienamide]
Primary Flavor or Sensory Characteristic (sensation) [1]: Strong tingle at 10 ppm.
Flavor of beverage versus control [2]: slightly more melon rind in character than the control
Perception / somatosensory effect of beverage versus control [2]: enhanced perception of alcohol and a tingle effect on the tongue
Flavor and taste effect of hard candy versus control [3]: moderately strong and substantive cola profile, as well as a taste effect similar to carbonation
